Assay results taken from article PMC6934184, “Selective DNA-PKcs inhibition extends the therapeutic index of localized radiotherapy and chemotherapy” (The Journal of Clinical Investigation, 2019).

Biological target: T1, NEK7 (Homo sapiens, UniProt Q8TDX7)
T1 construct: purchased Thermo Fisher Scientific (Life Technologies) SelectScreen
Experiment: SelectScreen Z'LYTE
Format: biochemical
Procedure, shortened: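 SelectScreen broad panel; activity (Z'LYTE, Adapta) plus binding formats. ATP: Km app for CSF1R Z'LYTE; 10 for CAMK1 Adapta. Readout = % per kinase.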

T1 sequence (Q8TDX7 whole entry): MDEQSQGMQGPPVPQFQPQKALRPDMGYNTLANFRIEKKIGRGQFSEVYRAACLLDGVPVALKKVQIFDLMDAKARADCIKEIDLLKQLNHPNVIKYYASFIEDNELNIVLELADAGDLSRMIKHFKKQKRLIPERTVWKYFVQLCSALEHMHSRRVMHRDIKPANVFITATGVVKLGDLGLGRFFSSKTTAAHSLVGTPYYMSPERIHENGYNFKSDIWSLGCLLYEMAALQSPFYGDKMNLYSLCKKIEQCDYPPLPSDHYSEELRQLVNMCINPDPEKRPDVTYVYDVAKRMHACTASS

Structure (SMILES): CN(C(=O)CN1CCOCC1)c1ccc2sc3c(-c4cccc5c(=O)cc(N6CC7CCC(C6)O7)oc45)cccc3c2c1 [NU5455]
- inhibition at 1 µM: -2.1%
